One may read the pIC50 as the negative decadic logarithm of the IC50, by convention in mol/L.

pIC50: −log10 of the molar value. Some results are limits rather than exact numbers.

The source of these data is patent US20240109877A1, “PYRIMIDINES FOR DEGRADING BRUTON'S TYROSINE KINASE” (AbbVie Inc., priority 2022, published 2024).

Experiment [1] addresses His-tagged Cereblon/DDB1 complex (Homo sapiens (Human), UniProt Q96SW2). The experiment in a line: Cereblon Binding Assay (AlphaLISA Human Cereblon Binding Kit, competition). As to conditions: 10 μM top dose, biotin-labeled ligand competition; read-out: CRBN IC50. The protocol: Cereblon binding was measured in vitro using an AlphaLISA® Human Cereblon Binding Kit (PerkinElmer, Waltham, MA) according to the manufacturer's protocol (“Alpha” refers to Amplified Luminescent Proximity Homogeneous Assay). In this assay, donor beads and acceptor beads come into proximity through ligand binding to CRBN protein. Excitation of the donor beads provokes the release of singlet oxygen that triggers a cascade of energy transfer reactions to the acceptor beads, resulting in a sharp peak in light emission at 615 nm.
Specifically, nickel chelate acceptor beads (PerkinElmer AL108M) were used to capture a 6XHIS-tagged CRBN protein, and streptavidin-coated donor beads (PerkinElmer 6760002) were used to capture 50 nM biotinylated ligand. Each well included the following: sample or control; HIS-tagged CRBN protein; biotinylated ligand; nickel chelate acceptor beads; and streptavidin donor beads.
Competition Assay: Test compounds in 100% dimethyl sulfoxide were plated onto white, low volume 384 well plates (PerkinElmer Proxiplate 384 plus # 6008289) using an Labcyte Echo acoustic dispenser, in an 11-point dose curve and 3-fold dilution scheme. […] Plates were incubated for 30 minutes at room temperature.
Detection: 10 μL detection reagents were added in low light conditions containing nickel chelate acceptor beads and streptavidin donor beads (Perkin Elmer 6760002), resulting in a final concentration 20 ng/ml. Plates were incubated 1 hour and read on a PerkinElmerTM Envision™ plate reader (680 nm excitation and […] settings). The IC50 of each compound was determined by calculating percent inhibition from no drug and no protein controls, and the Ki of each compound was calculated using the Cheng-Prusoff transformation. From the IC50 values were determined. The IC50 values are reported in Table 2 in the CRBN IC50 (nM) column.
For orientation: Alpha assays give light when donor and acceptor beads are brought close together.

The target in experiment [2] is BTK in mouse bone marrow (Mus musculus (Mouse), UniProt P35991). Kind of experiment: Mouse Bone Marrow Assay (MSD ELISA of BTK degradation in mouse bone marrow). To be noted: female C57BL/6J mice, single dose of Dose A, bone marrow collected after 24 hours, % remaining BTK in vehicle versus treated samples. Format: in vivo. The procedure: Female C57BL/6J mice (Jackson Laboratories) were used for this study. Compounds or vehicle/control were prepped with EtOH; PEG-400; Phosal 53 MCT (10:30:60, v/v). Four mice were tested per compound or vehicle/control. On Day 1, mice were administered a single dose of Dose A. On Day 2 (after 24 hours), tissue (bone marrow) was collected from one hind leg per mouse.
An MSD (Meso Scale Discovery) ELISA (enzyme-linked immunosorbent assay) based assay was used to determine BTK degradation in mouse bone marrow. The following materials and equipment were used: 10% NP40 solution (nonionic polyoxyethylene surfactant, ThermoFisher, cat no. 28324); protease inhibitor mini tablet (Roche, cat no. 05 892 970 001); PhosphoSTOP™ tablet (Roche, cat no. 04 906 837 001); Pierce™ BCA Protein Assay Kit (Thermofisher, Cat No. 23225); Precellys® 2 mL lysing tube with 2.8 mm beads (VWR, cat no. 10032-756); Bertin Precellys® 24/Cryolys ® cooling system; 96-well MSD streptavidin pre-coated plates (MSD, cat no. L15SA-1); MSD Blocker A (MSD, cat no. R93BA-4); capture antibody, biotinylated BTK mAb (BD Biosciences, cat no. 624008; custom order); primary detection antibody, BTK RpAb (rabbit polyclonal antibody, CST, cat no. 8547S, D3H5 clone); secondary detection antibody, anti-Rabbit-Sulfo-Tag (MSD, cat no. R32AB-1); read Buffer, 4× (MSD, cat no. R92TC-1); recombinant BTK protein (Thermofisher, cat no. PR5442A); MSD Tris Wash Buffer (10×) (MSD, cat no. R61TX-1); PBS (phosphate-buffered saline); deionized water (diH2O); Lysis Buffer [0.2% NP40 in PBS+Protease Inhibitor tablet (1 tablet/10 mL)+PhosphoSTOP tablet (1 tablet/10 mL)]; 3% MSD Blocker A [MSD Blocker A+450 mL diH2O+50 mL]; and 10× MSD Tris Wash Buffer.
Lysis buffer [(PBS+0.2% NP40+PI (protease inhibitor)+PhosphoSTOP)]was prepared and put on ice until it was fully cold. Ice cold lysis buffer […] was added to each Precellys® tube containing beads and bone marrow sample. Sample tubes were transferred into Precellys® machine and homogenized using 5000 rpm -2×20 seconds. The sample lysates were centrifuged at 14,000 rpm for 20 minutes at 4° C. after homogenizing.
The protein concentration was determined using Pierce™ BCA Protein Assay Kit following manufacturer's recommended protocol. The protein normalized working solution was prepared, using 30 μg protein per sample lysate for assay.
A 300 ng/ml working stock solution of recombinant BTK protein in lysis buffer was prepared, and the sample was serially diluted at 3-fold dilution (10-point assay, highest concentration was 300 ng/mL and lowest concentration was 0.015 ng/mL)
MSD plate coating: Coating antibody (biotinylated-BTK mAb) stock solution was prepared at 1 μg/mL in PBS buffer. 50 μL/well capture antibody (Biotinylated BTK mAb) solution was added, and the plates were shaken gently at ambient temperature for two hours. The plates were washed 3 times with 1× MSD Tris Wash Buffer in a plate washer (300 μL/well), and the plates were blocked with 3% MSD Blocker A (150 μL/well). The plates were incubated for an additional 1-2 hours at ambient temperature with gentle shaking. The plates were washed 3 times with 1× MSD wash buffer using plate washer. Bone marrow lysates (30 μg) at a final volume of 50 μL/well were added into the plates. The serially diluted standard samples were added to the same plates at a final volume of 50 μL/well. The plates were incubated overnight at 4° C. with gentle shaking.
The plates were washed three times with 1× MSD wash buffer (prepared from 10× concentration buffer) using plate washer. Primary detection antibody at 50 μL/well was added (BTK RpAb; 1:1000 dilution in 1% MSD Blocker A). The plates were incubated for two hours at ambient temperature with gentle shaking. The plates were washed three times with 1× MSD wash buffer using plate washer. Anti-Rabbit-SULFO-TAG secondary antibodies (50 μl/well) were added, 1:500 diluted in 1% MSD Blocker A, and the plates were incubated for one to two hours at ambient temperature. […]
Background: In an ELISA, binding on a coated surface is turned into a signal by an enzyme label.

Turning to `Cc1cc(-c2cc(Nc3ccc(N4CCN(CCc5ccc(N6CCC(=O)NC6=O)cc5)C[C@@H]4C(C)C)cn3)ncn2)ccc1[C@@H](C)NC(=O)c1nc(C(C)(C)C)no1` [Example 13, 3-tert-butyl-N-[(1R)-1-{4-[6-({5-[(2S)-4-{2-[4-(2,4-dioxo-1,3-diazinan-1-yl)phenyl]ethyl}-2-(propan-2-yl)piperazin-1-yl]pyridin-2-yl}amino)pyrimidin-4-yl]-2-methylphenyl}ethyl]-1,2,4-oxadiazole-5-carboxamide], the pIC50 in experiment [1] was no more than 5.00. Besides, the “Mouse Bone Marrow (%), % remaining BTK” value in experiment [2] is listed as 26%.
Regarding `C[C@@H](NC(=O)c1nc(C(C)(C)C)no1)c1ccc(-c2cc(Nc3ccc(N4CCN(CCc5ccc(N6CCC(=O)NC6=O)cc5)C[C@@H]4C)cn3)ncn2)cc1Cl` [Example 14, 3-tert-butyl-N-[(1R)-1-{2-chloro-4-[6-({5-[(2S)-4-{2-[4-(2,4-dioxo-1,3-diazinan-1-yl)phenyl]ethyl}-2-methylpiperazin-1-yl]pyridin-2-yl}amino)pyrimidin-4-yl]phenyl}ethyl]-1,2,4-oxadiazole-5-carboxamide], in experiment [1], the pIC50 is 5.63. Further, the “Mouse Bone Marrow (%), % remaining BTK” value in experiment [2] amounted to 16%.
For `Cc1cc(-c2cc(Nc3ccc(N4CCN(CCc5ccc(N6CCC(=O)NC6=O)cc5)C[C@@H]4C)cc3)ncn2)ccc1[C@@H](C)NC(=O)c1nc(C(C)(C)C)no1` [Example 18], the pIC50 in experiment [1] is 5.90. For the same compound, the “Mouse Bone Marrow (%), % remaining BTK” value in experiment [2] turned out to be 25%.
For the compound `Cc1cc(-c2cc(Nc3ccc(CCN4CCN(c5ccc(N6CCC(=O)NC6=O)cc5)CC4)cn3)ncn2)ccc1[C@@H](C)NC(=O)c1nc(C(C)(C)C)no1` [Example 19], the pIC50 in experiment [1] is no more than 5.00. Moreover, in experiment [2], the “Mouse Bone Marrow (%), % remaining BTK” value was found to be 51%.
